Series [1] addresses T1, Aurora kinase A (Homo sapiens, UniProt O14965).
T1 sequence (O14965 whole entry): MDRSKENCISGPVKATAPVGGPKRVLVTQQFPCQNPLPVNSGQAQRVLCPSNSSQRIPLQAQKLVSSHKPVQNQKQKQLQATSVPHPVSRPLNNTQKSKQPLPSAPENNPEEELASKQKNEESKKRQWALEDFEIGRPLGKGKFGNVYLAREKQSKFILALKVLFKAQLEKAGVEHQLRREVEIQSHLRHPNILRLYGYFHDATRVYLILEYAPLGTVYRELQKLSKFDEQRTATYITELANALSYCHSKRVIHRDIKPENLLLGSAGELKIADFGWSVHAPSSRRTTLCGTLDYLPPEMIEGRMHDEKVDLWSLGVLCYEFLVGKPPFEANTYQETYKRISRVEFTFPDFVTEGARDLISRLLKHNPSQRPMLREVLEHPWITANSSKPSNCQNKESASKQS
Briefly: Inhibition of recombinant Aurora A (unknown origin) using TAMRA-PKAtide as substrate after 30 mins by fluorescence polarization assay.

The test system of series [2] is HCT-116. In words: Induction of apoptosis in human HCT116 cells at 1 uM after 72 hrs by Annexin V-FITC/propidium iodide staining-based flow cytometric analysis. In kind it is functional, cell-based.
Series [3] in a line: Solubility of the compound in phosphate buffer of pH 2 after 24 hrs by RP-HPLC analysis. The class given is physicochemical.
Series [4] deals with HT-29. In words: Synergistic cytotoxicity against human HT-29 cells assessed as reduction in cell viability by measuring combination index at 1:1 compound to trichostatin A ratio after 48 hrs by MTT assay. In kind it is functional. In general terms: Tetrazolium assays rely on reduction of a dye to a coloured formazan, in cell work by metabolically active cells.
Series [5] concerns HT-29. Briefly: Synergistic cytotoxicity against human HT-29 cells assessed as reduction in cell viability by measuring combination index at 1:1 compound to dasatinib ratio after 48 hrs by MTT assay. The class given is functional.
Series [6] has as its target Tyrosine-protein kinase receptor UFO (Homo sapiens) (UniProt P30530). Briefly: Inhibition of AXL (unknown origin) at 10 uM.
The target in series [7] is Tyrosine-protein kinase ABL1 (Homo sapiens) (UniProt P00519). Briefly: Inhibition of ABL (unknown origin) at 10 uM.
In series [8] the target is Epithelial discoidin domain-containing receptor 1 (Homo sapiens) (UniProt Q08345). In words: Inhibition of DDR1 (unknown origin) at 10 uM.
Chain of Epithelial discoidin domain-containing receptor 1 (Homo sapiens) (Q08345 whole entry, the tested form may be a part): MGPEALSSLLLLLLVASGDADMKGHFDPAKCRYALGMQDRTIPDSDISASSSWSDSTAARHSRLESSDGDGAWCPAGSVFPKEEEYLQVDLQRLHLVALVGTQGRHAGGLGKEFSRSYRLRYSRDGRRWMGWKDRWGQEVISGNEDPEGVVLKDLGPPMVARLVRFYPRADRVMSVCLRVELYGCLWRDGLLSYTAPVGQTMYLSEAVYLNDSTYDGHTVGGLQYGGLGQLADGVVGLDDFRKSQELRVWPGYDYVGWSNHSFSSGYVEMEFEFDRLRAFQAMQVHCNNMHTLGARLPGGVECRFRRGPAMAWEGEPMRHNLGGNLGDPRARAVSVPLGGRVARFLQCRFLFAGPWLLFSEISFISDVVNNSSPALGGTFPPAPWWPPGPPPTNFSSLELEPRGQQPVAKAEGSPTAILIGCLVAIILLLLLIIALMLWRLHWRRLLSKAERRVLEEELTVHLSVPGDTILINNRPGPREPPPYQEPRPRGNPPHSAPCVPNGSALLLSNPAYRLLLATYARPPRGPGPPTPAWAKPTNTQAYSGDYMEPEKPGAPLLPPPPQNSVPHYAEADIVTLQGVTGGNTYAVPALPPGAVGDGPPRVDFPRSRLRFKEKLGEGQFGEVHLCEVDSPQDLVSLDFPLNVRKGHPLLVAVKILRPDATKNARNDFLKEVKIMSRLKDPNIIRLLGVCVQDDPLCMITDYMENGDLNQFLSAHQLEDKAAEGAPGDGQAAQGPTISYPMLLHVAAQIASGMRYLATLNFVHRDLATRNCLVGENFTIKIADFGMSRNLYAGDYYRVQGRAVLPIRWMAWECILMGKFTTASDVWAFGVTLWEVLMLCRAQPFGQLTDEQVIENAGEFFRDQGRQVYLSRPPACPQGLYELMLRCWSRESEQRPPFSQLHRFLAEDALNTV
Series [9] concerns the target Fibroblast growth factor receptor 3 (Homo sapiens) (UniProt P22607). Briefly: Inhibition of FGFR3 (unknown origin) at 10 uM.
Series [10] concerns the target Serine/threonine-protein kinase PLK3 (Homo sapiens) (UniProt Q9H4B4). In words: Inhibition of PLK3 (unknown origin) at 10 uM.
The target in series [11] is Serine/threonine-protein kinase Chk1 (Homo sapiens) (UniProt O14757). Briefly: Inhibition of CHK1 (unknown origin) at 10 uM.
Series [12] has as its target Serine/threonine-protein kinase B-raf (Homo sapiens) (UniProt P15056). In words: Inhibition of BRAF (unknown origin) at 10 uM.
Series [13] addresses Insulin receptor (Homo sapiens) (UniProt P06213). In words: Inhibition of INSR (unknown origin) at 10 uM.
In series [14] the target is Tyrosine-protein kinase CSK (Homo sapiens) (UniProt P41240). In words: Inhibition of CSK (unknown origin) at 10 uM.
Series [15] addresses Inhibitor of nuclear factor kappa-B kinase subunit beta (Homo sapiens) (UniProt O14920). Briefly: Inhibition of IKKbeta (unknown origin) at 10 uM.
For series [16], the target named is Serine/threonine-protein kinase mTOR (Homo sapiens) (UniProt P42345). Briefly: Inhibition of mTOR (unknown origin) at 10 uM.

A word on the IC50: it is the concentration needed to halve the response being measured. What is called solubility is how much of the substance goes into solution per volume. Low readings indicate a poorly soluble substance, high ones a readily soluble substance. What is called inhibition is the drop in the measured response relative to a control, in per cent.

In brackets after ≈: the same amount, converted by molar mass. Activity calls are given as the source filed them. The rule behind the calls is not given here.

Chain of Serine/threonine-protein kinase B-raf (Homo sapiens) (P15056 whole entry): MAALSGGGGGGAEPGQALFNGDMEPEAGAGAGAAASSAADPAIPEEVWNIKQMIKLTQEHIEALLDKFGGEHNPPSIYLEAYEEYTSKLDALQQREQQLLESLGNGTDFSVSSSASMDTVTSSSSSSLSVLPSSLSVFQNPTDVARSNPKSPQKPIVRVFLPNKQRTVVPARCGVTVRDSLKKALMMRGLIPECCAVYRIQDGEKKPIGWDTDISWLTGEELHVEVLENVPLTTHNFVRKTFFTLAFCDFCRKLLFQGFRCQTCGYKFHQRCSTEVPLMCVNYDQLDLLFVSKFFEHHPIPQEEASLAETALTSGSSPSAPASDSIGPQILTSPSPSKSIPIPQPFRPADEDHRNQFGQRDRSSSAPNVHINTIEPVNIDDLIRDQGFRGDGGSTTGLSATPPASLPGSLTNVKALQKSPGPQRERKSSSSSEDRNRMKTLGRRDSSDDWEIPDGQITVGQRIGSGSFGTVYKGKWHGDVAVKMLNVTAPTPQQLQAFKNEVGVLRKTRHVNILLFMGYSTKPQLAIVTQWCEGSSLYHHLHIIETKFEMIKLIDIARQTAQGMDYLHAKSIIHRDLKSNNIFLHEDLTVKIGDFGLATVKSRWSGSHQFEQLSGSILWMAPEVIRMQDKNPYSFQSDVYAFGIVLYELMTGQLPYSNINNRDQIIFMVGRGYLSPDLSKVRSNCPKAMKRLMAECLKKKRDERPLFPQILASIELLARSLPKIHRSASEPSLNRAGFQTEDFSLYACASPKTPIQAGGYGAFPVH
Chain of Inhibitor of nuclear factor kappa-B kinase subunit beta (Homo sapiens) (O14920 whole entry): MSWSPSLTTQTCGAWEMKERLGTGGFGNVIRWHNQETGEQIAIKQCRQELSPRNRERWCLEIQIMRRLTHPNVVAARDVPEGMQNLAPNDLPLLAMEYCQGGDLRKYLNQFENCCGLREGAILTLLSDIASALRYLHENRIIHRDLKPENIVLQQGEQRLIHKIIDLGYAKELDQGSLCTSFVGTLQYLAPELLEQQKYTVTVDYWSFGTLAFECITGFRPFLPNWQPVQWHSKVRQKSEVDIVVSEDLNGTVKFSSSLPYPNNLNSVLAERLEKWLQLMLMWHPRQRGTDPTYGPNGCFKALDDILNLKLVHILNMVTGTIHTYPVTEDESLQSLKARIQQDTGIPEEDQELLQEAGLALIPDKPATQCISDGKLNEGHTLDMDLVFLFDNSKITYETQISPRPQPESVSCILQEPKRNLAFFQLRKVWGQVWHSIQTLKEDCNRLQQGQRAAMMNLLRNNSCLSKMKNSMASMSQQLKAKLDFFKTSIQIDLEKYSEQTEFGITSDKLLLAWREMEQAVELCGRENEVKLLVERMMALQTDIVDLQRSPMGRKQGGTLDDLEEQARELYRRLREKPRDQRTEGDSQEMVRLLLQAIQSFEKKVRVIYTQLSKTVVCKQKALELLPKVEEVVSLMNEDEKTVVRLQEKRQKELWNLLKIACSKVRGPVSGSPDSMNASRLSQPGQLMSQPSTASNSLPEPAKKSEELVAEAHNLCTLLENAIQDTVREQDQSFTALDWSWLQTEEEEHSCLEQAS
Chain of Insulin receptor (Homo sapiens) (P06213 28-758 limits assumed): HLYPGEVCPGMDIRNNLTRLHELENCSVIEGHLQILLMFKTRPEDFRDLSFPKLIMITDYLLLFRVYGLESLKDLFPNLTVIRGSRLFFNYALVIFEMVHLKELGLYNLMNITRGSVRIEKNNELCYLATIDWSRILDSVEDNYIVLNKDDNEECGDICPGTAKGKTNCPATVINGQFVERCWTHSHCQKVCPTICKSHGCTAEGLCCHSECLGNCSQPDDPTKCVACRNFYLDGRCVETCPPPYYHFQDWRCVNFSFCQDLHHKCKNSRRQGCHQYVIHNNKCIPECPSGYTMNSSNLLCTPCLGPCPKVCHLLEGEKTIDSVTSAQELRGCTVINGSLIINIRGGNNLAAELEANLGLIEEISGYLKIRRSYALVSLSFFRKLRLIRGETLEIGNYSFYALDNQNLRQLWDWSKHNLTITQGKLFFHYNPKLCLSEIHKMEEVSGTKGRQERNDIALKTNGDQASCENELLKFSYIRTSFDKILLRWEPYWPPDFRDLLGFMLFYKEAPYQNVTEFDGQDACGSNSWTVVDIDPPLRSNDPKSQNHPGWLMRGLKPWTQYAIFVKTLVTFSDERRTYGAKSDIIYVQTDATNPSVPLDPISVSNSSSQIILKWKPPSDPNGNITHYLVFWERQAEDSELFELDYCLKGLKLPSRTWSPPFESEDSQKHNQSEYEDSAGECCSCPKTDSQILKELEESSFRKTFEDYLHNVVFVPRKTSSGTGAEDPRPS
Chain of Insulin receptor (Homo sapiens) (P06213 763-1382 limits assumed): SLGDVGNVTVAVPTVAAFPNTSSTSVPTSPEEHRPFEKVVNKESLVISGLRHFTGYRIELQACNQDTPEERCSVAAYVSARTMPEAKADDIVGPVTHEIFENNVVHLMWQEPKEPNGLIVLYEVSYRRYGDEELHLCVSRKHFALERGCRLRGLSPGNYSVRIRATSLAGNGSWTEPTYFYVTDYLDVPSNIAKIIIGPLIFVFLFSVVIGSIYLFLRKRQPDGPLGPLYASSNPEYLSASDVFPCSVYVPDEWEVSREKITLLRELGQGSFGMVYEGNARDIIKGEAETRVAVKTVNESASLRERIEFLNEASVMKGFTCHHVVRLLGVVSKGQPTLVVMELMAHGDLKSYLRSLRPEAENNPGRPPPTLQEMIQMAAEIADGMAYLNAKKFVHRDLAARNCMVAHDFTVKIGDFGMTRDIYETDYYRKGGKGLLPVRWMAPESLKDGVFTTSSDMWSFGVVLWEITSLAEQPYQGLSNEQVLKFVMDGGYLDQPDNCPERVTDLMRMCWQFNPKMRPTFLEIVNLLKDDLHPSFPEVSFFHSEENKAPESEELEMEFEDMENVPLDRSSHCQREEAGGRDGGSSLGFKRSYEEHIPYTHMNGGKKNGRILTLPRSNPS
Chain of Tyrosine-protein kinase receptor UFO (Homo sapiens) (P30530 whole entry): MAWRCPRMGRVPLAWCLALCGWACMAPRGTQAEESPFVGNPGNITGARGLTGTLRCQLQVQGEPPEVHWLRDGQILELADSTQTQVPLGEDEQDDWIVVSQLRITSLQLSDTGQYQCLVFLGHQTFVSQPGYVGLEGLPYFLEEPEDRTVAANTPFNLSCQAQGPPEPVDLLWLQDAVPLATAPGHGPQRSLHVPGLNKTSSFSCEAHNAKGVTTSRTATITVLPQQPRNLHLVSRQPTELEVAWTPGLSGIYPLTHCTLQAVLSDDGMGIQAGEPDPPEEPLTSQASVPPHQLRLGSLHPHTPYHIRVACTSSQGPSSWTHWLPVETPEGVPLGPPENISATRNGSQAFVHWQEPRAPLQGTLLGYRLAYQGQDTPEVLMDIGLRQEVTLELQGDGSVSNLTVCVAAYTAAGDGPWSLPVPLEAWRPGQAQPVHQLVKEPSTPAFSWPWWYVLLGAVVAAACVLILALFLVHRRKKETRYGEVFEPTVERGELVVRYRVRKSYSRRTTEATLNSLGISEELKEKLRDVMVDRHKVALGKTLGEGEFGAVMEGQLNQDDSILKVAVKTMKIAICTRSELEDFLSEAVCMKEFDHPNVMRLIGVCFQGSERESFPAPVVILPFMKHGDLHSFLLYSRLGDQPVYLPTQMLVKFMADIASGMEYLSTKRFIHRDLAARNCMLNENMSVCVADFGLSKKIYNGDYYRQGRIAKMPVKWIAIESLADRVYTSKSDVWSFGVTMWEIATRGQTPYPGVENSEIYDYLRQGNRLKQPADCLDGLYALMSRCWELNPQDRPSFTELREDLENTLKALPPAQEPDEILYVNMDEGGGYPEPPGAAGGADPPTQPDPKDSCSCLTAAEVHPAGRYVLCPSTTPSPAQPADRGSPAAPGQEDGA

With `CNC(=O)Nc1sc2c(C(C)C)cc(NS(=O)(=O)c3cccs3)cc2c1C(N)=O`, the IC50 in [1] worked out at 32 nM. Moreover, the outcome in series [2] was Active. Also, the solubility at 24 h in [3] was found to be 1.8 µM (≈ 0.815 µg/mL). The CI is on record as 0.185 in series [4] and 0.073 in series [5]. Further, the inhibition is 112% in series [6]; 100% in series [7]; 84.4% in [8]; 81.6% in [9]; 78.7% in series [10]; 62.8% in series [11]. For the same molecule, the inhibition in [12] came out at 53.5%; in series [13] it was 28.5%; in series [14], 17.3%; in series [15] it was 16.2%; in series [16], 8.62%.

For the origin of these results see ChEMBL document CHEMBL4265887 (Bioorg Med Chem Lett, 2018).
